The source made the active and inactive calls. How the calls were made is not given here.
System: CCRIS mutagenicity, Ames/micronucleus/aberration tests
Experiment: CCRIS mutagenicity studies
[1] = Test System: AMES SALMONELLA TYPHIMURIUM, Strain/Indicator: TA100, Metabolic Activation: NONE, Method: PREINCUBATION
[2] = Test System: AMES SALMONELLA TYPHIMURIUM, Strain/Indicator: TA1535, Metabolic Activation: NONE, Method: PREINCUBATION
[3] = Test System: AMES SALMONELLA TYPHIMURIUM, Strain/Indicator: TA1535, Metabolic Activation: NONE, Method: STANDARD PLATE
[4] = Test System: MOUSE LYMPHOMA, Strain/Indicator: L5178Y (TK+/TK-), Metabolic Activation: NONE, Method: SUSPENSION/PLATE
[5] = Test System: AMES SALMONELLA TYPHIMURIUM, Strain/Indicator: TA100, Metabolic Activation: NONE, Method: STANDARD PLATE
[6] = Test System: AMES SALMONELLA TYPHIMURIUM, Strain/Indicator: TA98, Metabolic Activation: NONE, Method: STANDARD PLATE

With Clc1cccc(C(Cl)(Cl)Cl)n1 the mutagenic call (Test System: AMES SALMONELLA TYPHIMURIUM, Strain/Indicator: TA97, Metabolic Activation: HAMSTER, LIVER, S-9, AROCLOR 1254 (10%), Method: PREINCUBATION) was “inactive; negative”, the mutagenic call (Test System: AMES SALMONELLA TYPHIMURIUM, Strain/Indicator: TA97, Metabolic Activation: NONE, Method: PREINCUBATION) was “inactive; negative” and the mutagenic call (Test System: AMES SALMONELLA TYPHIMURIUM, Strain/Indicator: TA97, Metabolic Activation: RAT, LIVER, S-9, AROCLOR 1254 (10%), Method: PREINCUBATION) was “inactive; negative”. For the same compound, the mutagenic call (Test System: AMES SALMONELLA TYPHIMURIUM, Strain/Indicator: TA98, Metabolic Activation: HAMSTER, LIVER, S-9, AROCLOR 1254 (5%), Method: PREINCUBATION) was “inactive; negative”, the mutagenic call (Test System: AMES SALMONELLA TYPHIMURIUM, Strain/Indicator: TA98, Metabolic Activation: HAMSTER, LIVER, S-9, AROCLOR 1254 (10%), Method: PREINCUBATION) was “active; positive” and the mutagenic call (Test System: AMES SALMONELLA TYPHIMURIUM, Strain/Indicator: TA98, Metabolic Activation: HAMSTER, LIVER, S-9, AROCLOR 1254 (30%), Method: PREINCUBATION) was “active; positive”. The mutagenic call (Test System: AMES SALMONELLA TYPHIMURIUM, Strain/Indicator: TA98, Metabolic Activation: NONE, Method: PREINCUBATION) was “inactive; negative”, the mutagenic call (Test System: AMES SALMONELLA TYPHIMURIUM, Strain/Indicator: TA98, Metabolic Activation: RAT, LIVER, S-9, AROCLOR 1254 (5%), Method: PREINCUBATION) was “inactive; negative” and the mutagenic call (Test System: AMES SALMONELLA TYPHIMURIUM, Strain/Indicator: TA98, Metabolic Activation: RAT, LIVER, S-9, AROCLOR 1254 (10%), Method: PREINCUBATION) was “active; positive”. For the same compound, the mutagenic call (Test System: AMES SALMONELLA TYPHIMURIUM, Strain/Indicator: TA98, Metabolic Activation: RAT, LIVER, S-9, AROCLOR 1254 (30%), Method: PREINCUBATION) was “active; positive”, the mutagenic call (Test System: AMES SALMONELLA TYPHIMURIUM, Strain/Indicator: TA100, Metabolic Activation: HAMSTER, LIVER, S-9, AROCLOR 1254 (5 OR 10%), Method: PREINCUBATION) was “inactive; negative” and the mutagenic call (Test System: AMES SALMONELLA TYPHIMURIUM, Strain/Indicator: TA100, Metabolic Activation: HAMSTER, LIVER, S-9, AROCLOR 1254 (30%), Method: PREINCUBATION) was “active; positive”. For the same compound, the mutagenic call [1] was “inactive; negative”, the mutagenic call (Test System: AMES SALMONELLA TYPHIMURIUM, Strain/Indicator: TA100, Metabolic Activation: RAT, LIVER, S-9, AROCLOR 1254 (5 OR 10%), Method: PREINCUBATION) was “inactive; negative” and the mutagenic call (Test System: AMES SALMONELLA TYPHIMURIUM, Strain/Indicator: TA100, Metabolic Activation: RAT, LIVER, S-9, AROCLOR 1254 (30%), Method: PREINCUBATION) was “inactive; negative”. The mutagenic call (Test System: AMES SALMONELLA TYPHIMURIUM, Strain/Indicator: TA1535, Metabolic Activation: HAMSTER, LIVER, S-9, AROCLOR 1254 (10%), Method: PREINCUBATION) was “inactive; negative”, the mutagenic call [2] was “inactive; negative” and the mutagenic call (Test System: AMES SALMONELLA TYPHIMURIUM, Strain/Indicator: TA1535, Metabolic Activation: RAT, LIVER, S-9, AROCLOR 1254 (10%), Method: PREINCUBATION) was “inactive; negative”.
With CC(=O)ON(C(C)=O)c1ccc(Oc2ccccc2)cc1 the mutagenic call (Test System: AMES SALMONELLA TYPHIMURIUM, Strain/Indicator: TA100, Metabolic Activation: GUINEA PIG, LIVER, S-9, KANECLOR 500, Method: STANDARD PLATE) was “active; positive”.
With NCCCNCCCCN(CCCN)/[N+]([O-])=N/O the mutagenic call [2] was “active; positive”, the mutagenic call [3] was “active; positive” and the mutagenic call (Test System: CHINESE HAMSTER OVARY, Strain/Indicator: CHO-K1-BH4 (HGPRT)/6-THIOGUANINE, Metabolic Activation: NONE) was “active; positive”. For the same compound, the mutagenic call (Test System: E. COLI, Strain/Indicator: WP2 UVRA (PKM101), Metabolic Activation: NONE, Method: STANDARD PLATE) was “active; positive”, the mutagenic call (Test System: E. COLI, Strain/Indicator: WP2 UVRA/OXYR (PKM101), Metabolic Activation: NONE, Method: STANDARD PLATE) was “active; positive” and the mutagenic call (Test System: E. COLI, Strain/Indicator: WP2 UVRA/UMUDC, Metabolic Activation: NONE, Method: STANDARD PLATE) was “active; positive”. For the same compound, the mutagenic call (Test System: E. COLI, Strain/Indicator: WP2 UVRA, Metabolic Activation: NONE, Method: STANDARD PLATE) was “active; positive” and the mutagenic call [4] was “active; positive”.
With Cc1ccc(S(=O)(=O)OC[C@H]2CO2)cc1 the mutagenic call [1] was “active; positive”, the mutagenic call [5] was “active; positive” and the mutagenic call (Test System: AMES SALMONELLA TYPHIMURIUM, Strain/Indicator: TA100, Metabolic Activation: RAT, LIVER, S-9, PCB, Method: PREINCUBATION) was “active; positive”.
In the case of CC(C)(S)[C@@H](N)C(=O)O, the mutagenic call (Test System: AMES SALMONELLA TYPHIMURIUM, Strain/Indicator: TA92, Metabolic Activation: HOMOGENIZED V-79, Method: STANDARD PLATE) is reported as “active; positive”, the mutagenic call (Test System: AMES SALMONELLA TYPHIMURIUM, Strain/Indicator: TA92, Metabolic Activation: NONE, Method: STANDARD PLATE) is reported as “active; positive” and the mutagenic call (Test System: AMES SALMONELLA TYPHIMURIUM, Strain/Indicator: TA92, Metabolic Activation: RAT, KIDNEY, S-9, Method: STANDARD PLATE) is reported as “active; positive”. For the same compound, the mutagenic call (Test System: AMES SALMONELLA TYPHIMURIUM, Strain/Indicator: TA92, Metabolic Activation: RAT, LIVER, S-9, Method: STANDARD PLATE) was “active; positive”, the mutagenic call [5] was “active; positive” and the mutagenic call (Test System: AMES SALMONELLA TYPHIMURIUM, Strain/Indicator: TA100, Metabolic Activation: RAT, KIDNEY, S-9, Method: STANDARD PLATE) was “active; positive”. For the same compound, the mutagenic call (Test System: AMES SALMONELLA TYPHIMURIUM, Strain/Indicator: TA100, Metabolic Activation: RAT, LIVER, S-9, Method: STANDARD PLATE) was “active; positive”, the mutagenic call (Test System: AMES SALMONELLA TYPHIMURIUM, Strain/Indicator: TA102, Metabolic Activation: NONE, Method: STANDARD PLATE) was “active; positive” and the mutagenic call (Test System: CHINESE HAMSTER V-79, Strain/Indicator: V-79/6-THIOGUANINE, Metabolic Activation: NONE, Method: STANDARD PLATE) was “inactive; negative”.
CC(Cc1ccc(O)c(O)c1)C(C)Cc1ccc(O)c(O)c1 (stereo not drawn) was tested, and the mutagenic call (Test System: AMES SALMONELLA TYPHIMURIUM, Strain/Indicator: TA98, Metabolic Activation: HAMSTER, LIVER, S-9, AROCLOR 1254, Method: STANDARD PLATE) was “inactive; negative”, the mutagenic call [6] was “inactive; negative” and the mutagenic call (Test System: AMES SALMONELLA TYPHIMURIUM, Strain/Indicator: TA98, Metabolic Activation: RAT, LIVER, S-9, AROCLOR 1254, Method: STANDARD PLATE) was “inactive; negative”. The mutagenic call (Test System: AMES SALMONELLA TYPHIMURIUM, Strain/Indicator: TA100, Metabolic Activation: HAMSTER, LIVER, S-9, AROCLOR 1254, Method: STANDARD PLATE) was “inactive; negative”, the mutagenic call [5] was “inactive; negative” and the mutagenic call (Test System: AMES SALMONELLA TYPHIMURIUM, Strain/Indicator: TA100, Metabolic Activation: RAT, LIVER, S-9, AROCLOR 1254, Method: STANDARD PLATE) was “inactive; negative”. For the same compound, the mutagenic call (Test System: AMES SALMONELLA TYPHIMURIUM, Strain/Indicator: TA1535, Metabolic Activation: HAMSTER, LIVER, S-9, AROCLOR 1254, Method: STANDARD PLATE) was “inactive; negative”, the mutagenic call [3] was “inactive; negative” and the mutagenic call (Test System: AMES SALMONELLA TYPHIMURIUM, Strain/Indicator: TA1535, Metabolic Activation: RAT, LIVER, S-9, AROCLOR 1254, Method: STANDARD PLATE) was “inactive; negative”. The mutagenic call (Test System: AMES SALMONELLA TYPHIMURIUM, Strain/Indicator: TA1537, Metabolic Activation: HAMSTER, LIVER, S-9, AROCLOR 1254, Method: STANDARD PLATE) was “inactive; negative”, the mutagenic call (Test System: AMES SALMONELLA TYPHIMURIUM, Strain/Indicator: TA1537, Metabolic Activation: NONE, Method: STANDARD PLATE) was “inactive; negative” and the mutagenic call (Test System: AMES SALMONELLA TYPHIMURIUM, Strain/Indicator: TA1537, Metabolic Activation: RAT, LIVER, S-9, AROCLOR 1254, Method: STANDARD PLATE) was “inactive; negative”. For the same compound, the mutagenic call (Test System: AMES SALMONELLA TYPHIMURIUM, Strain/Indicator: TA1538, Metabolic Activation: HAMSTER, LIVER, S-9, AROCLOR 1254, Method: STANDARD PLATE) was “inactive; negative”, the mutagenic call (Test System: AMES SALMONELLA TYPHIMURIUM, Strain/Indicator: TA1538, Metabolic Activation: NONE, Method: STANDARD PLATE) was “inactive; negative” and the mutagenic call (Test System: AMES SALMONELLA TYPHIMURIUM, Strain/Indicator: TA1538, Metabolic Activation: RAT, LIVER, S-9, AROCLOR 1254, Method: STANDARD PLATE) was “inactive; negative”. For the same compound, the mutagenic call [4] was “active; positive. reevaluation of results: positive” and the mutagenic call (Test System: MOUSE LYMPHOMA, Strain/Indicator: L5178Y (TK+/TK-), Metabolic Activation: RAT, LIVER, S-9, AROCLOR 1254, Method: SUSPENSION/PLATE) was “inactive; negative. reevaluation of results: negative”.
With COc1ccc2c(c1)[C@H]1CCCC[C@@H]1[C@H]1O[C@@H]21 the mutagenic call [6] was “inactive; negative” and the mutagenic call [5] was “inactive; negative”.
